Read-outs that look alike come from different tables or passages of the source.
Columns and labels:
[1] = test system: CCRF-CEM/VBL100; test: cells; assay type: cell-based, human; settings: read-out: IC50
Protocol: (§1) The drug-resistant cell lines were continuously cultured in the presence of the selecting agent, AD, DX, VBL or VM to maintain the drug resistant phenotypes. […] All cells were cultured in RPMI 1640-10% FBS at 37° C. 5% CO2 (see below).
(§2) The cells were cultured at an initial density of 5×10^4 cells/mL. They were maintained in a 5% CO2-humidified atmosphere at 37° C. in RPMI-1640 medium (GIBCO-BRL, Gaithersburg, Md.) containing penicillin (100 U/mL), streptomycin ([…]) (GIBCO-BRL) and 10% heat inactivate fetal bovine serum. Culture for cell suspension (such as for CCRF-CEM, P388 and sublines), were performed by the XTT-microculture tetrazonium method (Scudiero, D. A. et al., Cancer Res. 1988, 48, 4827-4833) in duplicate in 96-well microtiter plates.
(§3) 2′,3′-Bis(methoxy-4-nitro-5-sufophenyl)-5-[(phenylamino)carbonyl]2H-tetrazolium hyudroxide (XTT) was prepared at 1 mg/mL in prewarmed (37° C.) medium without serum. Phenazine methosulfate (PMS) and fresh XTT were mixed together to obtain 0.025 mM PMS-XTT solution (25 μL of the stock 5 mM PMS was added per 5 mL of 1 mg/mL XTT). Following a 72 h incubation, 50 μL of the assay aliquots were added to each well of the cell culture. After incubation at 37° C. for 4 h, absorbance at 450 nm and 630 nm was measured with a microplate reader (EL340, Bio-Tek Instruments, Inc., Winooski, Vt.).

[2] = test system: CCRF-CEM human T-cell acute lymphoblastic leukemia cell line; test: XTT cytotoxicity (cell growth inhibition), CCRF-CEM; settings: for Rel. Value (potency relative to Epo B): CCRF-CEM leukemic cells
Protocol: The DC-3F hamster lung fibroblast cell line and its actinomycin D-selected sublines (DC-3F/ADII and DC-3F/ADX) were obtained from the Memorial Sloan-Kettering Cancer Center (MSKCC).
as §1, §2, §3

[3] = test system: Human Lymphoblastic Leukemia CCRF-CEM; test: CCRF-CEM xenograft in nude mice, i.v. 6 h infusion; assay type: in vivo; settings: for Average Body Weight, Day 21: initial weight
[4] = test system: human mammary carcinoma MX-1 xenograft
Protocol: DMSO was used as a vehicle for epothilones. Each mouse received ≦40 μL DMSO in all experiments.
Athymic nude mice (nu/nu) were used for MX-1 and MCF-7/Adr human mammary carcinoma xenografts. Mice were obtained from Taconic Laboratory Animals and Service (Germantown, N.Y.: outbred, Swiss background).

[5] = Table 5, CCRF-CEM/VLB, single determinations
[6] = Dose DesoxyepoB 40, Taxol 20, i.v. infusion 6 hr on day 21,23,25,27
[7] = Table 26, Dose Q2D x 4: DesoxyepoB 40, Taxol 20
[8] = high doses: dEpoB 25, EpoB 0.6, Taxol 10, Vinblastine 0.4 mg/kg i.p. Q2D from day 7
[9] = low doses: dEpoB 15, EpoB 0.3, Taxol 5, Vinblastine 0.2 mg/kg i.p. Q2D day 7-15

Structure (SMILES): CCC/C1=C\C[C@@H](/C(C)=C/c2csc(C)n2)OC(=O)C[C@H](O)C(C)(C)C(=O)[C@H](C)[C@@H](O)[C@@H](C)CCC1 [#17]
- IC50 [1, 5]: 0.254 µM
- IC50 ([1]; Table 7, CEM/VBL): 0.254 µM
- IC50 [1]: 0.254 µM
- IC50 [2]: 0.09 µM
- Rel. Value (potency relative to Epo B) [2]: 1/257
- IC50 ([2]; Table 5, single determinations): 0.09 µM
- IC50 ([2]; Table 7, CEM): 0.09 µM

Structure (SMILES): C/C(=C\c1coc(C)n1)[C@@H]1C/C=C\CCC[C@H](C)[C@H](O)[C@@H](C)C(=O)C(C)(C)[C@@H](O)CC(=O)O1 [#20]
- IC50 [1, 5]: 0.049 µM
- IC50 ([1]; Table 7, CEM/VBL): 0.049 µM
- IC50 [1]: 0.049 µM
- IC50 [2]: 0.03 µM
- IC50 ([2]; Table 5, single determinations): 0.03 µM
- IC50 ([2]; Table 7, CEM): 0.03 µM

Structure (SMILES): C/C1=C/C[C@@H](/C(C)=C/c2ccccc2)OC(=O)C[C@H](O)C(C)(C)C(=O)[C@H](C)[C@@H](O)[C@@H](C)CCC1 [#22]
- IC50 [1, 5]: 0.146 µM
- IC50 ([1]; Table 7, CEM/VBL): 0.146 µM
- IC50 [1]: 0.146 µM
- IC50 ([2]; Table 5, single determinations): 0.098 µM
- IC50 ([2]; Table 7, CEM): 0.098 µM

Structure (SMILES): CCC[C@@]12CCC[C@H](C)[C@H](O)[C@@H](C)C(=O)C(C)(C)[C@@H](O)CC(=O)O[C@H](/C(C)=C/c3csc(C)n3)C[C@@H]1O2 [#24]
- IC50 [1, 5]: 0.053 µM
- IC50 ([1]; Table 7, CEM/VBL): 0.053 µM
- IC50 [1]: 0.053 µM
- IC50 [2]: 0.0078 µM
- IC50 ([2]; Table 5, single determinations): 0.0078 µM
- IC50 ([2]; Table 7, CEM): 0.0078 µM

Structure (SMILES): CC/C1=C/C[C@@H](/C(C)=C/c2csc(C)n2)OC(=O)C[C@H](O)C(C)(C)C(=O)[C@H](C)[C@@H](O)[C@@H](C)CCC1 [#25]
- IC50 [1, 5]: 0.077 µM
- IC50 ([1]; Table 7, CEM/VBL): 0.077 µM
- IC50 [1]: 0.077 µM
- IC50 [2]: 0.021 µM
- Rel. Value (potency relative to Epo B) [2]: 1/60
- IC50 ([2]; Table 7, CEM): 0.0212 µM

Structure (SMILES): CCC1=CCC(C(C)=Cc2csc(C)n2)OC(=O)CC(O)C(C)(C)C(=O)C(C)C(O)C(C)CCC1 (stereo not shown) [#26]
- IC50 [1, 5]: 0.197 µM
- IC50 ([1]; Table 7, CEM/VBL): 0.197 µM
- IC50 [1]: 0.197 µM
- IC50 [2]: 0.005 µM
- Rel. Value (potency relative to Epo B) [2]: 1/157
- IC50 ([2]; Table 5, single determinations): 0.055 µM
- IC50 ([2]; Table 7, CEM): 0.0545 µM

Structure (SMILES): CC[C@@]12CCC[C@H](C)[C@H](O)[C@@H](C)C(=O)C(C)(C)[C@@H](O)CC(=O)O[C@H](/C(C)=C/c3csc(C)n3)C[C@@H]1O2 [#27]
- IC50 [1, 5]: 0.0072 µM
- IC50 ([1]; Table 7, CEM/VBL): 0.0072 µM
- IC50 [1]: 0.0072 µM
- IC50 [2]: 0.001 µM
- fold more potent than Taxol ([2]; CCRF-CEM cells): > 2 fold
- IC50 ([2]; Table 5, single determinations): 0.001 µM
- IC50 ([2]; Table 7, CEM): 0.001 µM

Structure (SMILES): C/C1=C/C[C@@H](/C(C)=C/c2csc(C)n2)OC(=O)C[C@H](O)C(C)(C)C(=O)[C@H](C)[C@@H](O)[C@@H](C)CCC1 [DesoxyepoB]
- Average Body Weight Changes, Day 23 [3, 6]: -1.4 g
- Average Body Weight Changes, Day 25 [3, 6]: -3.6 g
- Average Body Weight Changes, Day 27 [3, 6]: -3.9 g
- Average Body Weight Changes, Day 29 [3, 6]: -5.2 g
- Average Body Weight Changes, Day 31 [3, 6]: -4.2 g
- Average Body Weight Changes, Day 33 [3, 6]: -3.1 g
- Average Body Weight Changes, Day 35 [3, 6]: -2.3 g
- Average Body Weight Changes, Day 37 [3, 6]: -1.2 g
- Average Body Weight Changes, Day 39 [3, 6]: -0.2 g
- Average Body Weight Changes, Day 41 [3, 6]: +0.9 g
- Average Tumor Size (T/C), Day 21 [3, 6]: 1.10 T/C
- Average Tumor Size (T/C), Day 23 [3, 6]: 0.73 T/C
- Average Tumor Size (T/C), Day 25 [3, 6]: 0.31 T/C
- Average Tumor Size (T/C), Day 27 [3, 6]: 0.09 T/C
- Average Tumor Size (T/C), Day 29 [3, 6]: 0 T/C
- Average Tumor Size (T/C), Day 31 [3, 6]: 0 T/C
- Average Tumor Size (T/C), Day 33 [3, 6]: 0 T/C
- Average Tumor Size (T/C), Day 35 [3, 6]: 0 T/C
- Proportion of Tumor Disappearance (n/total), Day 21 [3, 6]: 0/3
- Proportion of Tumor Disappearance (n/total), Day 23 [3, 6]: 0/3
- Proportion of Tumor Disappearance (n/total), Day 25 [3, 6]: 0/3
- Proportion of Tumor Disappearance (n/total), Day 27 [3, 6]: 0/3
- Proportion of Tumor Disappearance (n/total), Day 29 [3, 6]: 3/3
- Proportion of Tumor Disappearance (n/total), Day 31 [3, 6]: 3/3
- Proportion of Tumor Disappearance (n/total), Day 33 [3, 6]: 3/3
- Proportion of Tumor Disappearance (n/total), Day 35 [3, 6]: 3/3
- Proportion of Tumor Disappearance (n/total), Day 37 [3, 6]: 1/3
- Proportion of Tumor Disappearance (n/total), Day 39 [3, 6]: 1/3
- Proportion of Tumor Disappearance (n/total), Day 41 [3, 6]: 0/3
- Average Body Weight Change, Day 23 [3, 7]: -1.4 g
- Average Body Weight Change, Day 25 [3, 7]: -3.6 g
- Average Body Weight Change, Day 27 [3, 7]: -3.9 g
- Average Body Weight Change, Day 29 [3, 7]: -5.2 g
- Average Body Weight Change, Day 31 [3, 7]: -4.2 g
- Average Tumor Size (T/C), Day 23 [3, 7]: 0.68 T/C
- Average Tumor Size (T/C), Day 25 [3, 7]: 0.30 T/C
- Average Tumor Size (T/C), Day 27 [3, 7]: 0.09 T/C
- Average Tumor Size (T/C), Day 29 [3, 7]: 0 T/C
- Average Tumor Size (T/C), Day 31 [3, 7]: 0 T/C
- Tumor Disappearance [3, 7]: 3/3
- Average Body Weight, Day 21 [3, 7]: 26.6 g
- Average Body Weight, Day 21 [3, 6]: 26.6 g

Structure (SMILES): C/C1=C/C[C@@H](/C(C)=C/c2csc(C)n2)OC(=O)C[C@H](O)C(C)(C)C(=O)[C@H](C)[C@@H](O)[C@@H](C)CCC1 [Desoxyepothione B]
- cured on day 35 (no detectable tumor) ([4]; Desoxyepothilone B 25 mg/kg i.p. Q2D day 7-15): (1/6 cured on day 35)
- Average Body Weight (change), Day 11 [4, 8]: +0.4 g
- Average Body Weight (change), Day 13 [4, 8]: +0.7 g
- Average Body Weight (change), Day 15 [4, 8]: +1.0 g
- Average Body Weight Change, Day 17 [4, 8]: +0.7 g
- Average Tumor Volume (T/C), Day 11 [4, 8]: 0.38 T/C
- Average Tumor Volume (T/C), Day 13 [4, 8]: 0.11 T/C
- Average Tumor Volume (T/C), Day 15 [4, 8]: 0.05 T/C
- Average Tumor Volume (T/C), Day 17 [4, 8]: 0.04 T/C
- Note: died (mice died/total) [4, 8]: 0/6 died
- Average Body Weight, Day 7 ([4]; initial weight, first treatment day, high doses: dEpoB 25, EpoB 0.6, Taxol 10, Vinblastine 0.4 mg/kg i.p. Q2D from day 7): 27.0 g
- Average Body Weight (change), Day 11 [4, 9]: +0.8 g
- Average Body Weight (change), Day 13 [4, 9]: +1.1 g
- Average Body Weight (change), Day 15 [4, 9]: +1.6 g
- Average Body Weight Change, Day 17 [4, 9]: +1.5 g
- Average Tumor Volume (T/C), Day 11 [4, 9]: 0.65 T/C
- Average Tumor Volume (T/C), Day 13 [4, 9]: 0.46 T/C
- Average Tumor Volume (T/C), Day 15 [4, 9]: 0.49 T/C
- Average Tumor Volume (T/C), Day 17 [4, 9]: 0.41 T/C
- Note: died (mice died/total) [4, 9]: 0/6 died
